Source: US20250098679A1, “HERBICIDAL PYRIDONE DERIVATIVES” (SYNGENTA CROP PROTECTION AG, priority 2021, published 2025)

Columns and labels:
Assay type in all cases: in vivo
Conditions in all cases: evaluated after 13 days
Zea mays (ZEAMX) = test: Post-emergence Test, Zea mays (ZEAMX); design: key to percentage damage caused to the plant, ZEAMX (five-point scale): 5=81-100%, 4=61-80%, 3=41-60%, 2=21-40%, 1=0-20% damage
Method: (§1) Seeds of a variety of test species are sown in standard soil in pots (Setaria faberi (SETFA), Echinochloa crus-galli (ECHCG), Zea mays (ZEAMX), Ipomoea hederacea (IPOHE), Amaranthus palmeri (AMAPA), Amaranthus retoflexus (AMARE)). After 8 days cultivation under controlled conditions in a glasshouse (at 24° C./16° C., day/night; 14 hours light; 65% humidity), the plants are sprayed with an aqueous spray solution derived from the formulation of the technical active ingredient in acetone/water (50:50) solution containing 0.5% Tween 20 (polyoxyethelyene sorbitan monolaurate, CAS RN 9005-64-5). Compounds are applied at 1000 g/ha unless otherwise stated. The test plants are then grown in a glasshouse under controlled conditions in a glasshouse (at 24° C./16° C., day/night; 14 hours light; 65% humidity) and watered twice daily. After 13 days the test is evaluated for the percentage damage caused to the plant. The biological activities are shown in the following table on a five-point scale (5=81-100%; 4=61-80%; 3=41-60%; 2=21-40%; 1=0-20%; -=not tested).

Setaria faberi (SETFA) = test: Post-emergence Test, Setaria faberi (SETFA); design: key to percentage damage caused to the plant, SETFA (five-point scale): 5=81-100%, 4=61-80%, 3=41-60%, 2=21-40%, 1=0-20% damage
Method: as §1

[1] = tested on: Amaranthus retoflexus (AMARE); test: Post-emergence Test, Amaranthus retoflexus (AMARE); design: key to percentage damage caused to the plant, AMARE (five-point scale): 5=81-100%, 4=61-80%, 3=41-60%, 2=21-40%, 1=0-20% damage
Method: as §1

[2] = tested on: Echinochloa crus-galli (ECHCG); test: Post-emergence Test, Echinochloa crus-galli (ECHCG); design: key to percentage damage caused to the plant, ECHCG (five-point scale): 5=81-100%, 4=61-80%, 3=41-60%, 2=21-40%, 1=0-20% damage
Method: as §1

[3] = tested on: Ipomoea hederacea (IPOHE); test: Post-emergence Test, Ipomoea hederacea (IPOHE); design: key to percentage damage caused to the plant, IPOHE (five-point scale): 5=81-100%, 4=61-80%, 3=41-60%, 2=21-40%, 1=0-20% damage
Method: as §1

[4] = tested on: Amaranthus palmeri (AMAPA); test: Post-emergence Test, Amaranthus palmeri (AMAPA); design: key: 5=81-100%, 4=61-80%, 3=41-60%, 2=21-40%, 1=0-20% damage
Method: as §1

CCC(=O)Nc1ccn(Cc2cc(=O)c(C(=O)O)c(-c3ccc(Cl)c(Cl)c3)n2CC)n1 [Compound 192, 2-(3,4-dichlorophenyl)-1-ethyl-4-oxo-6-[[3-(propanoylamino)pyrazol-1-yl]methyl]pyridine-3-carboxylic acid]
percentage damage caused to the plant, ZEAMX (five-point scale) (Zea mays (ZEAMX); 1000 g/ha): 0
percentage damage caused to the plant, SETFA (five-point scale) (Setaria faberi (SETFA); 1000 g/ha): 0
percentage damage caused to the plant, AMARE (five-point scale) ([1]; 1000 g/ha): 1 (1=0-20%)
percentage damage caused to the plant, ECHCG (five-point scale) ([2]; 1000 g/ha): 0
percentage damage caused to the plant, IPOHE (five-point scale) ([3]; 1000 g/ha): 0
percentage damage caused to the plant, AMAPA (five-point scale) ([4]; 1000 g/ha): 1 (1=0-20%)

CCn1c(Cn2nc(C(F)(F)F)cc2C2CC2)cc(=O)c(C(=O)O)c1-c1ccc(Cl)c(Cl)c1 [Compound 184, 6-[[5-cyclopropyl-3-(trifluoromethyl)pyrazol-1-yl]methyl]-2-(3,4-dichlorophenyl)-1-ethyl-4-oxo-pyridine-3-carboxylic acid]
percentage damage caused to the plant, ZEAMX (five-point scale) (Zea mays (ZEAMX); 250 g/Ha): 1 (1=0-20%)
percentage damage caused to the plant, ZEAMX (five-point scale) (Zea mays (ZEAMX); 1000 g/ha): 3 (3=41-60%)
percentage damage caused to the plant, SETFA (five-point scale) (Setaria faberi (SETFA); 1000 g/ha): 4 (4=61-80%)
percentage damage caused to the plant, AMARE (five-point scale) ([1]; 250 g/Ha): 1 (1=0-20%)
percentage damage caused to the plant, AMARE (five-point scale) ([1]; 1000 g/ha): 3 (3=41-60%)
percentage damage caused to the plant, ECHCG (five-point scale) ([2]; 250 g/Ha): 3 (3=41-60%)
percentage damage caused to the plant, IPOHE (five-point scale) ([3]; 250 g/Ha): 1 (1=0-20%)
percentage damage caused to the plant, IPOHE (five-point scale) ([3]; 1000 g/ha): 4 (4=61-80%)
percentage damage caused to the plant, AMAPA (five-point scale) ([4]; 250 g/Ha): 1 (1=0-20%)
percentage damage caused to the plant, AMAPA (five-point scale) ([4]; 1000 g/ha): 3 (3=41-60%)

CCn1c(Cn2nc(C)cc2OC(C)(C)C)cc(=O)c(C(=O)O)c1-c1ccc(Cl)c(Cl)c1 [Compound 152, 6-[(5-tert-butoxy-3-methyl-pyrazol-1-yl)methyl]-2-(3,4-dichlorophenyl)-1-ethyl-4-oxo-pyridine-3-carboxylic acid]
percentage damage caused to the plant, ZEAMX (five-point scale) (Zea mays (ZEAMX); 1000 g/ha): 1 (1=0-20%)
percentage damage caused to the plant, SETFA (five-point scale) (Setaria faberi (SETFA); 1000 g/ha): 0
percentage damage caused to the plant, AMARE (five-point scale) ([1]; 1000 g/ha): 1 (1=0-20%)
percentage damage caused to the plant, ECHCG (five-point scale) ([2]; 1000 g/ha): 1 (1=0-20%)
percentage damage caused to the plant, IPOHE (five-point scale) ([3]; 1000 g/ha): 0
percentage damage caused to the plant, AMAPA (five-point scale) ([4]; 1000 g/ha): 1 (1=0-20%)

CCOC(=O)c1c(-c2ccc(Cl)c(Cl)c2)n(CC)c(Cn2cnc([N+](=O)[O-])c2)cc1=O [Compound 51, ethyl 2-(3,4-dichlorophenyl)-1-ethyl-6-[(4-nitroimidazol-1-yl)methyl]-4-oxo-pyridine-3-carboxylate]
percentage damage caused to the plant, ZEAMX (five-point scale) (Zea mays (ZEAMX); 1000 g/ha): 0
percentage damage caused to the plant, SETFA (five-point scale) (Setaria faberi (SETFA); 1000 g/ha): 1 (1=0-20%)
percentage damage caused to the plant, AMARE (five-point scale) ([1]; 1000 g/ha): 0
percentage damage caused to the plant, ECHCG (five-point scale) ([2]; 1000 g/ha): 1 (1=0-20%)
percentage damage caused to the plant, IPOHE (five-point scale) ([3]; 1000 g/ha): 1 (1=0-20%)
percentage damage caused to the plant, AMAPA (five-point scale) ([4]; 1000 g/ha): 1 (1=0-20%)

CCn1c(Cn2cnc(C#N)c2C#N)cc(=O)c(C(=O)O)c1-c1ccc(Cl)c(Cl)c1 [Compound 113, 2-(3,4-dichlorophenyl)-6-[(4,5-dicyanoimidazol-1-yl)methyl]-1-ethyl-4-oxo-pyridine-3-carboxylic acid]
percentage damage caused to the plant, ZEAMX (five-point scale) (Zea mays (ZEAMX); 1000 g/ha): 1 (1=0-20%)
percentage damage caused to the plant, SETFA (five-point scale) (Setaria faberi (SETFA); 1000 g/ha): 1 (1=0-20%)
percentage damage caused to the plant, AMARE (five-point scale) ([1]; 1000 g/ha): 1 (1=0-20%)
percentage damage caused to the plant, ECHCG (five-point scale) ([2]; 1000 g/ha): 1 (1=0-20%)
percentage damage caused to the plant, IPOHE (five-point scale) ([3]; 1000 g/ha): 0
percentage damage caused to the plant, AMAPA (five-point scale) ([4]; 1000 g/ha): 1 (1=0-20%)

CCOC(=O)c1c(-c2ccc(Cl)c(Cl)c2)n(CC)c(Cn2nccn2)cc1=O [Compound 58, ethyl 2-(3,4-dichlorophenyl)-1-ethyl-4-oxo-6-(triazol-2-ylmethyl)pyridine-3-carboxylate]
percentage damage caused to the plant, ZEAMX (five-point scale) (Zea mays (ZEAMX); 1000 g/ha): 0
percentage damage caused to the plant, SETFA (five-point scale) (Setaria faberi (SETFA); 1000 g/ha): 1 (1=0-20%)
percentage damage caused to the plant, AMARE (five-point scale) ([1]; 1000 g/ha): 1 (1=0-20%)
percentage damage caused to the plant, ECHCG (five-point scale) ([2]; 1000 g/ha): 1 (1=0-20%)
percentage damage caused to the plant, IPOHE (five-point scale) ([3]; 1000 g/ha): 0
percentage damage caused to the plant, AMAPA (five-point scale) ([4]; 1000 g/ha): 0

CCn1c(Cn2nc3c(c2C(F)F)COCC3)cc(=O)c(C(=O)O)c1-c1ccc(Cl)c(Cl)c1 [Compound 97, 2-(3,4-dichlorophenyl)-6-[[3-(difluoromethyl)-6,7-dihydro-4H-pyrano[4,3-c]pyrazol-2-yl]methyl]-1-ethyl-4-oxo-pyridine-3-carboxylic acid]
percentage damage caused to the plant, ZEAMX (five-point scale) (Zea mays (ZEAMX); 250 g/Ha): 1 (1=0-20%)
percentage damage caused to the plant, SETFA (five-point scale) (Setaria faberi (SETFA); 250 g/Ha): 0
percentage damage caused to the plant, AMARE (five-point scale) ([1]; 250 g/Ha): 1 (1=0-20%)
percentage damage caused to the plant, ECHCG (five-point scale) ([2]; 250 g/Ha): 1 (1=0-20%)
percentage damage caused to the plant, IPOHE (five-point scale) ([3]; 250 g/Ha): 0
percentage damage caused to the plant, AMAPA (five-point scale) ([4]; 250 g/Ha): 1 (1=0-20%)

CCn1c(Cn2ncc3ccccc32)cc(=O)c(C(=O)O)c1-c1ccc(Cl)c(Cl)c1 [Compound 105, 2-(3,4-dichlorophenyl)-1-ethyl-6-[indazol-1-ylmethyl)-4-oxo-pyridine-3-carboxylic acid]
percentage damage caused to the plant, ZEAMX (five-point scale) (Zea mays (ZEAMX); 250 g/Ha): 0
percentage damage caused to the plant, ZEAMX (five-point scale) (Zea mays (ZEAMX); 1000 g/ha): 1 (1=0-20%)
percentage damage caused to the plant, SETFA (five-point scale) (Setaria faberi (SETFA); 250 g/Ha): 0
percentage damage caused to the plant, SETFA (five-point scale) (Setaria faberi (SETFA); 1000 g/ha): 2 (2=21-40%)
percentage damage caused to the plant, AMARE (five-point scale) ([1]; 250 g/Ha): 0
percentage damage caused to the plant, AMARE (five-point scale) ([1]; 1000 g/ha): 2 (2=21-40%)
percentage damage caused to the plant, ECHCG (five-point scale) ([2]; 250 g/Ha): 3 (3=41-60%)
percentage damage caused to the plant, ECHCG (five-point scale) ([2]; 1000 g/ha): 3 (3=41-60%)
percentage damage caused to the plant, IPOHE (five-point scale) ([3]; 250 g/Ha): 0
percentage damage caused to the plant, IPOHE (five-point scale) ([3]; 1000 g/ha): 4 (4=61-80%)
percentage damage caused to the plant, AMAPA (five-point scale) ([4]; 250 g/Ha): 0
percentage damage caused to the plant, AMAPA (five-point scale) ([4]; 1000 g/ha): 2 (2=21-40%)

CCOC(=O)c1c(-c2ccc(Cl)c(Cl)c2)n(CC)c(Cn2ccc(C(F)(F)F)n2)c(Br)c1=O [Compound 23, ethyl 5-bromo-2-(3,4-dichlorophenyl)-1-ethyl-4-oxo-6-[[3-(trifluoromethyl)pyrazol-1-yl]methyl]pyridine-3-carboxylate]
percentage damage caused to the plant, ZEAMX (five-point scale) (Zea mays (ZEAMX); 1000 g/ha): 1 (1=0-20%)
percentage damage caused to the plant, SETFA (five-point scale) (Setaria faberi (SETFA); 1000 g/ha): 2 (2=21-40%)
percentage damage caused to the plant, AMARE (five-point scale) ([1]; 1000 g/ha): 1 (1=0-20%)
percentage damage caused to the plant, ECHCG (five-point scale) ([2]; 1000 g/ha): 2 (2=21-40%)
percentage damage caused to the plant, IPOHE (five-point scale) ([3]; 1000 g/ha): 2 (2=21-40%)
percentage damage caused to the plant, AMAPA (five-point scale) ([4]; 1000 g/ha): 2 (2=21-40%)

CCn1c(Cn2ncc([N+](=O)[O-])c2C)cc(=O)c(C(=O)O)c1-c1ccc(Cl)c(Cl)c1 [Compound 69, 2-(3,4-dichlorophenyl)-1-ethyl-6-[(5-methyl-4-nitro-pyrazol-1-yl)methyl]-4-oxo-pyridine-3-carboxylic acid]
percentage damage caused to the plant, ZEAMX (five-point scale) (Zea mays (ZEAMX); 1000 g/ha): 2 (2=21-40%)
percentage damage caused to the plant, SETFA (five-point scale) (Setaria faberi (SETFA); 1000 g/ha): 3 (3=41-60%)
percentage damage caused to the plant, AMARE (five-point scale) ([1]; 1000 g/ha): 1 (1=0-20%)
percentage damage caused to the plant, ECHCG (five-point scale) ([2]; 1000 g/ha): 1 (1=0-20%)
percentage damage caused to the plant, IPOHE (five-point scale) ([3]; 1000 g/ha): 1 (1=0-20%)
percentage damage caused to the plant, AMAPA (five-point scale) ([4]; 1000 g/ha): 1 (1=0-20%)

CCOC(=O)c1c(-c2ccc(Cl)c(Cl)c2)n(CC)c(Cn2ccnc2)c(Br)c1=O [Compound 24, ethyl 5-bromo-2-(3,4-dichlorophenyl)-1-ethyl-6-(imidazol-1-ylmethyl)-4-oxo-pyridine-3-carboxylate]
percentage damage caused to the plant, ZEAMX (five-point scale) (Zea mays (ZEAMX); 250 g/Ha): 1 (1=0-20%)
percentage damage caused to the plant, ZEAMX (five-point scale) (Zea mays (ZEAMX); 1000 g/ha): 3 (3=41-60%)
percentage damage caused to the plant, SETFA (five-point scale) (Setaria faberi (SETFA); 250 g/Ha): 1 (1=0-20%)
percentage damage caused to the plant, SETFA (five-point scale) (Setaria faberi (SETFA); 1000 g/ha): 1 (1=0-20%)
percentage damage caused to the plant, AMARE (five-point scale) ([1]; 250 g/Ha): 1 (1=0-20%)
percentage damage caused to the plant, AMARE (five-point scale) ([1]; 1000 g/ha): 1 (1=0-20%)
percentage damage caused to the plant, ECHCG (five-point scale) ([2]; 250 g/Ha): 1 (1=0-20%)
percentage damage caused to the plant, ECHCG (five-point scale) ([2]; 1000 g/ha): 1 (1=0-20%)
percentage damage caused to the plant, IPOHE (five-point scale) ([3]; 250 g/Ha): 2 (2=21-40%)
percentage damage caused to the plant, IPOHE (five-point scale) ([3]; 1000 g/ha): 1 (1=0-20%)
percentage damage caused to the plant, AMAPA (five-point scale) ([4]; 250 g/Ha): 1 (1=0-20%)
percentage damage caused to the plant, AMAPA (five-point scale) ([4]; 1000 g/ha): 1 (1=0-20%)
